According to PubChem BioAssay AID248 (DTP/NCI, 2004):
“And” between values parts separate entries of the source, which are not always exact repeats. Equal values may be shown once. Inconclusive results and toxic doses are left out. Rule as the data show it: active = T/C of 150% or more; inactive = T/C below 125%.

System: L1210 leukemia ip in BDF1 mice, survival T/C
Experiment: NCI In Vivo Anticancer Drug Screen. Data for tumor model L1210 Leukemia (intraperitoneal) in B6D2F1 (BDF1) mice
Conditions: endpoint: mean survival time, higher = longer survival
Method in brief: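 Survival endpoint. Drug-treated group vs vehicle group, expressed as T divided by C. Tumor passaged by transplantation.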

[1] = dose: 5.0 mg/kg/injection, schedule: Q01DX001 (ip), vehicle: saline

Measured: T/C

O=C1N[C@@H]([C@H]2CC[C@H](Cl)CN2)C(=O)N[C@H]1[C@H]1CC[C@H](Cl)CN1
inactive: dose: 0.05 mg/kg/injection, schedule: Q01DX009 (ip), vehicle: saline 98 % of control and 109 % of control | dose: 0.1 mg/kg/injection, schedule: Q01DX009 (ip), vehicle: saline 104 % of control and 113 % of control | dose: 0.2 mg/kg/injection, schedule: Q01DX009 (ip), vehicle: saline 104 % of control and 124 % of control | dose: 0.25 mg/kg/injection, schedule: Q03HX008 (ip), vehicle: saline 117 % of control | dose: 0.25 mg/kg/injection, schedule: Q03HX016 (ip), vehicle: saline 121 % of control | dose: 0.39 mg/kg/injection, schedule: Q01DX009 (ip), vehicle: water 104 % of control | dose: 0.4 mg/kg/injection, schedule: Q01DX009 (ip), vehicle: saline 107 % of control | dose: 0.78 mg/kg/injection, schedule: Q01DX009 (ip), vehicle: water 120 % of control | dose: 1.0 mg/kg/injection, schedule: Q01DX001 (ip), vehicle: other 103 % of control | dose: 1.0 mg/kg/injection, schedule: Q01DX009 (ip), vehicle: water 108 % of control | dose: 1.25 mg/kg/injection, schedule: Q01DX001 (ip), vehicle: saline 116 % of control and 122 % of control | dose: 2.0 mg/kg/injection, schedule: Q01DX001 (ip), vehicle: none 120 % of control | dose: 2.0 mg/kg/injection, schedule: Q01DX001 (ip), vehicle: other 124 % of control | dose: 2.0 mg/kg/injection, schedule: Q01DX001 (sc), vehicle: saline 114 % of control | dose: 2.0 mg/kg/injection, schedule: Q01DX009 (ip), vehicle: water 119 % of control | dose: 4.0 mg/kg/injection, schedule: Q01DX009 (oral), vehicle: saline 86 % of control | dose: 6.25 mg/kg/injection, schedule: Q01DX009 (ip), vehicle: water 97 % of control | dose: 8.0 mg/kg/injection, schedule: Q04DX003 (ip), vehicle: saline 103 % of control | dose: 9.1 mg/kg/injection, schedule: Q01DX009 (ip), vehicle: saline 86 % of control | dose: 16.0 mg/kg/injection, schedule: Q08DX002 (ip), vehicle: saline 90 % of control | dose: 32.0 mg/kg/injection, schedule: Q01DX001 (ip), vehicle: none 64 % of control | dose: 200.0 mg/kg/injection, schedule: Q01DX001 (ip), vehicle: water 115 % of control | dose: 125.0 micrograms/kg/injection, schedule: Q03HX024 (ip), vehicle: saline 121 % of control
active: dose: 0.5 mg/kg/injection, schedule: Q01DX009 (ip), vehicle: saline 150 % of control | dose: 0.5 mg/kg/injection, schedule: Q03HX016 (ip), vehicle: saline 158 % of control | dose: 0.8 mg/kg/injection, schedule: Q01DX009 (ip), vehicle: saline 190 % of control | dose: 1.0 mg/kg/injection, schedule: Q01DX001 (ip), vehicle: saline 173 % of control | dose: 1.0 mg/kg/injection, schedule: Q01DX009 (ip), vehicle: saline 161 % of control and 186 % of control | dose: 1.0 mg/kg/injection, schedule: Q01DX009 (sc), vehicle: saline 161 % of control | dose: 1.0 mg/kg/injection, schedule: Q03HX008 (ip), vehicle: saline 165 % of control | dose: 1.0 mg/kg/injection, schedule: Q03HX016 (ip), vehicle: saline 280 % of control | dose: 1.1 mg/kg/injection, schedule: Q01DX009 (ip), vehicle: saline 246 % of control | dose: 1.3 mg/kg/injection, schedule: Q01DX009 (ip), vehicle: saline 159 % of control | dose: 1.5 mg/kg/injection, schedule: Q01DX009 (ip), vehicle: saline 171 % of control and 189 % of control | dose: 1.56 mg/kg/injection, schedule: Q01DX009 (ip), vehicle: water 160 % of control | dose: 1.8 mg/kg/injection, schedule: Q01DX009 (ip), vehicle: saline 255 % of control | dose: 2.0 mg/kg/injection, schedule: Q01DX009 (ip), vehicle: saline 206 % of control and 290 % of control and 306 % of control | dose: 2.0 mg/kg/injection, schedule: Q01DX009 (oral), vehicle: saline 173 % of control | dose: 2.0 mg/kg/injection, schedule: Q01DX009 (sc), vehicle: saline 201 % of control | dose: 2.0 mg/kg/injection, schedule: Q03HX008 (ip), vehicle: saline 430 % of control | dose: 2.0 mg/kg/injection, schedule: Q03HX016 (ip), vehicle: saline 207 % of control | dose: 2.0 mg/kg/injection, schedule: Q04DX003 (ip), vehicle: saline 172 % of control | dose: 2.0 mg/kg/injection, schedule: Q08DX002 (ip), vehicle: saline 155 % of control | dose: 2.2 mg/kg/injection, schedule: Q01DX009 (ip), vehicle: saline 210 % of control and 297 % of control | dose: 2.6 mg/kg/injection, schedule: Q01DX009 (ip), vehicle: saline 206 % of control and 470 % of control | dose: 3.0 mg/kg/injection, schedule: Q01DX009 (ip), vehicle: saline 229 % of control | dose: 3.13 mg/kg/injection, schedule: Q01DX009 (ip), vehicle: water 213 % of control | dose: 4.0 mg/kg/injection, schedule: Q01DX001 (oral), vehicle: saline 176 % of control | dose: 4.0 mg/kg/injection, schedule: Q04DX003 (ip), vehicle: saline 208 % of control | dose: 4.0 mg/kg/injection, schedule: Q08DX002 (ip), vehicle: saline 213 % of control | [1] 165 % of control and 170 % of control | dose: 5.0 mg/kg/injection, schedule: Q01DX001 (ip), vehicle: water 222 % of control | dose: 6.5 mg/kg/injection, schedule: Q01DX001 (ip), vehicle: saline 273 % of control and 327 % of control | dose: 6.7 mg/kg/injection, schedule: Q01DX001 (ip), vehicle: saline 257 % of control | dose: 8.0 mg/kg/injection, schedule: Q01DX001 (ip), vehicle: none 207 % of control | dose: 8.0 mg/kg/injection, schedule: Q01DX001 (ip), vehicle: other 316 % of control | dose: 8.0 mg/kg/injection, schedule: Q01DX001 (oral), vehicle: saline 240 % of control | dose: 8.0 mg/kg/injection, schedule: Q01DX001 (sc), vehicle: saline 150 % of control | dose: 8.0 mg/kg/injection, schedule: Q01DX009 (ip), vehicle: water 279 % of control | dose: 9.7 mg/kg/injection, schedule: Q01DX001 (ip), vehicle: saline 151 % of control and 254 % of control | dose: 10.0 mg/kg/injection, schedule: Q01DX001 (ip), vehicle: water 278 % of control | dose: 11.6 mg/kg/injection, schedule: Q01DX001 (ip), vehicle: saline 234 % of control and 314 % of control | dose: 16.0 mg/kg/injection, schedule: Q01DX001 (ip), vehicle: none 155 % of control | dose: 16.0 mg/kg/injection, schedule: Q01DX001 (ip), vehicle: other 279 % of control | dose: 16.0 mg/kg/injection, schedule: Q01DX001 (oral), vehicle: saline 223 % of control | dose: 16.0 mg/kg/injection, schedule: Q01DX009 (ip), vehicle: water 383 % of control | dose: 400.0 mg/kg/injection, schedule: Q01DX001 (ip), vehicle: water 199 % of control | dose: 800.0 mg/kg/injection, schedule: Q01DX001 (ip), vehicle: water 158 % of control | dose: 500.0 micrograms/kg/injection, schedule: Q03HX024 (ip), vehicle: saline 165 % of control | dose: 1000.0 micrograms/kg/injection, schedule: Q03HX024 (ip), vehicle: saline 211 % of control

Nc1nnnn1-c1ccc2ccccc2c1
inactive: dose: 100.0 mg/kg/injection, schedule: Q04DX003 (ip), vehicle: saline with Tween-80 101 % of control | dose: 200.0 mg/kg/injection, schedule: Q04DX003 (ip), vehicle: saline with Tween-80 97 % of control | dose: 400.0 mg/kg/injection, schedule: Q04DX003 (ip), vehicle: saline with Tween-80 101 % of control

FCCNCCF
inactive: [1] 101 % of control | dose: 10.0 mg/kg/injection, schedule: Q01DX001 (ip), vehicle: saline 112 % of control

NNC(=O)CO
inactive: dose: 100.0 mg/kg/injection, schedule: Q01DX009 (ip), vehicle: saline 108 % of control | dose: 100.0 mg/kg/injection, schedule: Q04DX003 (ip), vehicle: saline 101 % of control | dose: 200.0 mg/kg/injection, schedule: Q01DX009 (ip), vehicle: saline 106 % of control | dose: 200.0 mg/kg/injection, schedule: Q04DX003 (ip), vehicle: saline 97 % of control | dose: 400.0 mg/kg/injection, schedule: Q01DX009 (ip), vehicle: saline 114 % of control | dose: 400.0 mg/kg/injection, schedule: Q04DX003 (ip), vehicle: saline 98 % of control
